Literature values, collected in patent US8080647B2 (priority 2006, dated 2011).

B1: lactose repressor: repressor protein of the E. coli lactose operon (protein, UniProt P03023 1-360, looked up)
Lactose operon repressor: MKPVTLYDVAEYAGVSYQTVSRVVNQASHVSAKTREKVEAAMAELNYIPNRVAQQLAGKQSLLIGVATSSLALHAPSQIVAAIKSRADQLGASVVVSMVERSGVEACKAAVHNLLAQRVSGLIINYPLDDQDAIAVEAACTNVPALFLDVSDQTPINSIIFSHEDGTRLGVEHLVALGHQQIALLAGPLSSVSARLRLAGWHKYLTRNQIQPIAEREGDWSAMSGFQQTMQMLNEGIVPTAMLVANDQMALGAMRAITESGLRVGADISVVGYDDTEDSSCYIPPLTTIKQDFRLLGQTSVDRLLQLSQGQAVKGNQLLPVSLVKRKTTLAPNTQTASPRALADSLMQLARQVSRLESGQ

Assays:
[1] = tested on: cells
[2] = molecular target: lac repressor (Escherichia coli, UniProt P03023)
[3] = tested on: lac operator-repressor system; settings: Ulmasov et al. 1997

Molecule	toxicity of the inducing agent [1]	reduction of the affinity of lac repressor for the operator [2] [fold]	repression reported [3] [fold]
CC(C)S[C@@H]1O[C@H](CO)[C@H](O)[C@H](O)[C@H]1O [IPTG, isopropyl-B-D-thiogalactopyranoside]	cytotoxic	300	
B1			30
